PubChem BioAssay (NCI)
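Values below derive from 48-hour exposures of cells grown in 96-well plates, with endpoints linearly interpolated between the two concentrations bracketing the appropriate inhibition level. The concentration for full growth arrest is given as TGI.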

These compounds were tested on NCI-H460 lung (assay: NCI-60 cell line screen, 48 h).
C[C@]12CC[C@H](O)CC1=CC[C@@H]1C2CC[C@]2(C)c3n[nH]nc3CC12 (some centres undefined) was tested, and the TGI was greater than 100 µM. With O=C1C=CC(=O)c2c1ccc1c3ccccc3n(CCCCCCCCn3c4ccccc4c4ccc5c(c43)C(=O)C=CC5=O)c21 the TGI was greater than 100 µM. With N#CC[C@@H](O)COc1ccccc1 the TGI was greater than 100 µM. For C=C1C(=O)O[C@@H]2O[C@@]3(C)CC[C@H]4[C@H](C)CC[C@@H]1[C@@]24O3, the TGI was 65.9 µM. In the case of c1cc(-c2ccc(-c3ccc(-c4ccc(-c5cccc6nsnc56)[nH]4)c4nsnc34)[nH]2)c2nsnc2c1, the TGI was greater than 100 µM.

What follows are compounds tested on MDA-MB-435 (assay: NCI-60 cell line screen, 48 h).
With C[C@]12CC[C@H](O)CC1=CC[C@@H]1C2CC[C@]2(C)c3n[nH]nc3CC12 (some centres undefined) the TGI was greater than 100 µM. O=C1C=CC(=O)c2c1ccc1c3ccccc3n(CCCCCCCCn3c4ccccc4c4ccc5c(c43)C(=O)C=CC5=O)c21 gave a TGI greater than 100 µM. N#CC[C@@H](O)COc1ccccc1 gave a TGI greater than 100 µM. Work on C=C1C(=O)O[C@@H]2O[C@@]3(C)CC[C@H]4[C@H](C)CC[C@@H]1[C@@]24O3 yielded a TGI greater than 100 µM. Work on c1cc(-c2ccc(-c3ccc(-c4ccc(-c5cccc6nsnc56)[nH]4)c4nsnc34)[nH]2)c2nsnc2c1 yielded a TGI greater than 100 µM.

What follows are compounds tested on SK-MEL-28 melanoma (assay: NCI-60 cell line screen, 48 h).
Work on C[C@]12CC[C@H](O)CC1=CC[C@@H]1C2CC[C@]2(C)c3n[nH]nc3CC12 (some centres undefined) yielded a TGI greater than 100 µM. Work on O=C1C=CC(=O)c2c1ccc1c3ccccc3n(CCCCCCCCn3c4ccccc4c4ccc5c(c43)C(=O)C=CC5=O)c21 yielded a TGI greater than 100 µM. With N#CC[C@@H](O)COc1ccccc1 the TGI was greater than 100 µM. Compound C=C1C(=O)O[C@@H]2O[C@@]3(C)CC[C@H]4[C@H](C)CC[C@@H]1[C@@]24O3 has a TGI greater than 100 µM. In the case of c1cc(-c2ccc(-c3ccc(-c4ccc(-c5cccc6nsnc56)[nH]4)c4nsnc34)[nH]2)c2nsnc2c1, the TGI was greater than 100 µM.

These compounds were tested on SF-295 CNS (assay: NCI-60 cell line screen, 48 h).
C[C@]12CC[C@H](O)CC1=CC[C@@H]1C2CC[C@]2(C)c3n[nH]nc3CC12 (some centres undefined) showed a TGI greater than 100 µM. With O=C1C=CC(=O)c2c1ccc1c3ccccc3n(CCCCCCCCn3c4ccccc4c4ccc5c(c43)C(=O)C=CC5=O)c21 the TGI was greater than 100 µM. Compound N#CC[C@@H](O)COc1ccccc1 has a TGI greater than 100 µM. In the case of C=C1C(=O)O[C@@H]2O[C@@]3(C)CC[C@H]4[C@H](C)CC[C@@H]1[C@@]24O3, the TGI was greater than 100 µM. For c1cc(-c2ccc(-c3ccc(-c4ccc(-c5cccc6nsnc56)[nH]4)c4nsnc34)[nH]2)c2nsnc2c1, the TGI was greater than 100 µM.

The compounds below were run on SNB-75 CNS (assay: NCI-60 cell line screen, 48 h).
Compound C[C@]12CC[C@H](O)CC1=CC[C@@H]1C2CC[C@]2(C)c3n[nH]nc3CC12 (some centres undefined) has a TGI greater than 100 µM. N#CC[C@@H](O)COc1ccccc1 was tested, and the TGI was greater than 100 µM. In the case of c1cc(-c2ccc(-c3ccc(-c4ccc(-c5cccc6nsnc56)[nH]4)c4nsnc34)[nH]2)c2nsnc2c1, the TGI was greater than 100 µM.

The compounds below were run on NCI/ADR-RES ovarian (assay: NCI-60 cell line screen, 48 h).
With O=C1C=CC(=O)c2c1ccc1c3ccccc3n(CCCCCCCCn3c4ccccc4c4ccc5c(c43)C(=O)C=CC5=O)c21 the TGI was greater than 100 µM. For c1cc(-c2ccc(-c3ccc(-c4ccc(-c5cccc6nsnc56)[nH]4)c4nsnc34)[nH]2)c2nsnc2c1, the TGI was greater than 100 µM.

What follows are compounds tested on MDA-MB-231 breast (assay: NCI-60 cell line screen, 48 h).
Compound C[C@]12CC[C@H](O)CC1=CC[C@@H]1C2CC[C@]2(C)c3n[nH]nc3CC12 (some centres undefined) has a TGI greater than 100 µM. O=C1C=CC(=O)c2c1ccc1c3ccccc3n(CCCCCCCCn3c4ccccc4c4ccc5c(c43)C(=O)C=CC5=O)c21 gave a TGI greater than 100 µM. Work on N#CC[C@@H](O)COc1ccccc1 yielded a TGI greater than 100 µM. In the case of C=C1C(=O)O[C@@H]2O[C@@]3(C)CC[C@H]4[C@H](C)CC[C@@H]1[C@@]24O3, the TGI was 81.8 µM. c1cc(-c2ccc(-c3ccc(-c4ccc(-c5cccc6nsnc56)[nH]4)c4nsnc34)[nH]2)c2nsnc2c1 showed a TGI greater than 100 µM.

Each compound was assayed on CAKI-1 renal (assay: NCI-60 cell line screen, 48 h).
In the case of C[C@]12CC[C@H](O)CC1=CC[C@@H]1C2CC[C@]2(C)c3n[nH]nc3CC12 (some centres undefined), the TGI was greater than 100 µM. With O=C1C=CC(=O)c2c1ccc1c3ccccc3n(CCCCCCCCn3c4ccccc4c4ccc5c(c43)C(=O)C=CC5=O)c21 the TGI was greater than 100 µM. N#CC[C@@H](O)COc1ccccc1 showed a TGI greater than 100 µM. C=C1C(=O)O[C@@H]2O[C@@]3(C)CC[C@H]4[C@H](C)CC[C@@H]1[C@@]24O3 was tested, and the TGI was 46.4 µM.

Each compound was assayed on OVCAR-5 ovarian (assay: NCI-60 cell line screen, 48 h).
In the case of C[C@]12CC[C@H](O)CC1=CC[C@@H]1C2CC[C@]2(C)c3n[nH]nc3CC12 (some centres undefined), the TGI was greater than 100 µM. With O=C1C=CC(=O)c2c1ccc1c3ccccc3n(CCCCCCCCn3c4ccccc4c4ccc5c(c43)C(=O)C=CC5=O)c21 the TGI was greater than 100 µM. N#CC[C@@H](O)COc1ccccc1 showed a TGI greater than 100 µM. Compound C=C1C(=O)O[C@@H]2O[C@@]3(C)CC[C@H]4[C@H](C)CC[C@@H]1[C@@]24O3 has a TGI greater than 100 µM. For c1cc(-c2ccc(-c3ccc(-c4ccc(-c5cccc6nsnc56)[nH]4)c4nsnc34)[nH]2)c2nsnc2c1, the TGI was greater than 100 µM.

These compounds were tested on NCI-H23 lung (assay: NCI-60 cell line screen, 48 h).
Compound C[C@]12CC[C@H](O)CC1=CC[C@@H]1C2CC[C@]2(C)c3n[nH]nc3CC12 (some centres undefined) has a TGI greater than 100 µM. Compound O=C1C=CC(=O)c2c1ccc1c3ccccc3n(CCCCCCCCn3c4ccccc4c4ccc5c(c43)C(=O)C=CC5=O)c21 has a TGI greater than 100 µM. N#CC[C@@H](O)COc1ccccc1 gave a TGI greater than 100 µM. C=C1C(=O)O[C@@H]2O[C@@]3(C)CC[C@H]4[C@H](C)CC[C@@H]1[C@@]24O3 gave a TGI of 40.1 µM. c1cc(-c2ccc(-c3ccc(-c4ccc(-c5cccc6nsnc56)[nH]4)c4nsnc34)[nH]2)c2nsnc2c1 showed a TGI greater than 100 µM.

The compounds below were run on COLO 205 colon (assay: NCI-60 cell line screen, 48 h).
Work on C[C@]12CC[C@H](O)CC1=CC[C@@H]1C2CC[C@]2(C)c3n[nH]nc3CC12 (some centres undefined) yielded a TGI greater than 100 µM. With O=C1C=CC(=O)c2c1ccc1c3ccccc3n(CCCCCCCCn3c4ccccc4c4ccc5c(c43)C(=O)C=CC5=O)c21 the TGI was greater than 100 µM. Compound N#CC[C@@H](O)COc1ccccc1 has a TGI greater than 100 µM. In the case of C=C1C(=O)O[C@@H]2O[C@@]3(C)CC[C@H]4[C@H](C)CC[C@@H]1[C@@]24O3, the TGI was 34.3 µM. c1cc(-c2ccc(-c3ccc(-c4ccc(-c5cccc6nsnc56)[nH]4)c4nsnc34)[nH]2)c2nsnc2c1 showed a TGI greater than 100 µM.

What follows are compounds tested on NCI-H522 lung (assay: NCI-60 cell line screen, 48 h).
C[C@]12CC[C@H](O)CC1=CC[C@@H]1C2CC[C@]2(C)c3n[nH]nc3CC12 (some centres undefined) showed a TGI greater than 100 µM. For O=C1C=CC(=O)c2c1ccc1c3ccccc3n(CCCCCCCCn3c4ccccc4c4ccc5c(c43)C(=O)C=CC5=O)c21, the TGI was greater than 100 µM. Work on N#CC[C@@H](O)COc1ccccc1 yielded a TGI greater than 100 µM. Work on C=C1C(=O)O[C@@H]2O[C@@]3(C)CC[C@H]4[C@H](C)CC[C@@H]1[C@@]24O3 yielded a TGI of 62.8 µM. For c1cc(-c2ccc(-c3ccc(-c4ccc(-c5cccc6nsnc56)[nH]4)c4nsnc34)[nH]2)c2nsnc2c1, the TGI was greater than 100 µM.

What follows are compounds tested on PC-3 prostate (assay: NCI-60 cell line screen, 48 h).
C[C@]12CC[C@H](O)CC1=CC[C@@H]1C2CC[C@]2(C)c3n[nH]nc3CC12 (some centres undefined) gave a TGI greater than 100 µM. For O=C1C=CC(=O)c2c1ccc1c3ccccc3n(CCCCCCCCn3c4ccccc4c4ccc5c(c43)C(=O)C=CC5=O)c21, the TGI was greater than 100 µM. For N#CC[C@@H](O)COc1ccccc1, the TGI was greater than 100 µM. For C=C1C(=O)O[C@@H]2O[C@@]3(C)CC[C@H]4[C@H](C)CC[C@@H]1[C@@]24O3, the TGI was 52.7 µM. Compound c1cc(-c2ccc(-c3ccc(-c4ccc(-c5cccc6nsnc56)[nH]4)c4nsnc34)[nH]2)c2nsnc2c1 has a TGI greater than 100 µM.

The compounds below were run on CCRF-CEM leukemia (assay: NCI-60 cell line screen, 48 h).
For C[C@]12CC[C@H](O)CC1=CC[C@@H]1C2CC[C@]2(C)c3n[nH]nc3CC12 (some centres undefined), the TGI was greater than 100 µM. Compound O=C1C=CC(=O)c2c1ccc1c3ccccc3n(CCCCCCCCn3c4ccccc4c4ccc5c(c43)C(=O)C=CC5=O)c21 has a TGI greater than 100 µM. N#CC[C@@H](O)COc1ccccc1 gave a TGI greater than 100 µM. Work on C=C1C(=O)O[C@@H]2O[C@@]3(C)CC[C@H]4[C@H](C)CC[C@@H]1[C@@]24O3 yielded a TGI of 11.8 µM. c1cc(-c2ccc(-c3ccc(-c4ccc(-c5cccc6nsnc56)[nH]4)c4nsnc34)[nH]2)c2nsnc2c1 gave a TGI greater than 100 µM.

What follows are compounds tested on HS 578T breast (assay: NCI-60 cell line screen, 48 h).
Work on C[C@]12CC[C@H](O)CC1=CC[C@@H]1C2CC[C@]2(C)c3n[nH]nc3CC12 (some centres undefined) yielded a TGI greater than 100 µM. For O=C1C=CC(=O)c2c1ccc1c3ccccc3n(CCCCCCCCn3c4ccccc4c4ccc5c(c43)C(=O)C=CC5=O)c21, the TGI was greater than 100 µM. N#CC[C@@H](O)COc1ccccc1 gave a TGI greater than 100 µM. C=C1C(=O)O[C@@H]2O[C@@]3(C)CC[C@H]4[C@H](C)CC[C@@H]1[C@@]24O3 was tested, and the TGI was greater than 100 µM. In the case of c1cc(-c2ccc(-c3ccc(-c4ccc(-c5cccc6nsnc56)[nH]4)c4nsnc34)[nH]2)c2nsnc2c1, the TGI was greater than 100 µM.
